In the supplement of paper PMC8920030:

How the values were obtained:
Details in all cases: growth mode: biofilm, 24 h; exposure time: 24 h
[1] = compound: T1, NC[C@H]1O[C@H](O[C@H]2[C@H](O)[C@@H](O[C@H]3O[C@H](CO)[C@@H](O)[C@H](N)[C@H]3O)[C@H](N)C[C@@H]2N)[C@H](N)C[C@@H]1O [tobramycin]; test: minimum concentration of killing, 2-log CFU reduction of biofilm (MCK99); higher = more biofilm tolerance
Description: (§1)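 Clinical P. aeruginosa isolates were grown as static biofilms for 24 h at 37 °C in LB in half-area 96-well plates, then exposed for 24 h to tobramycin at 1, 4, 16, 64, 256 or […]. Surviving CFU were counted by spotting serial dilutions. MCK is the lowest tested concentration giving the stated log reduction in CFU versus an untreated control; '>1024' means the reduction was not reached at the top dose, and 1 is the lowest dose tested (≤1).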

[2] = compound: T1, tobramycin; test: minimum concentration of killing, 4-log CFU reduction of biofilm (MCK99.99); higher = more biofilm tolerance
Description: as §1

[3] = compound: T2, CCC(C)CCCC(=O)N[C@@H](CCN)C(=O)N[C@H](C(=O)N[C@@H](CCN)C(=O)N[C@H]1CCNC(=O)[C@H]([C@@H](C)O)NC(=O)[C@H](CCN)NC(=O)[C@H](CCN)NC(=O)[C@H](CC(C)C)NC(=O)[C@@H](CC(C)C)NC(=O)[C@H](CCN)NC1=O)[C@@H](C)O [colistin]; test: minimum concentration eradicating biofilm below detection limit (MCK-E); higher = more biofilm tolerance
Description: as §1, with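 “colistin” for “tobramycin”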

[4] = compound: T2, colistin; test: minimum concentration of killing, 1-log CFU reduction of biofilm (MCK90); higher = more biofilm tolerance
Description: as §1, with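 “colistin” for “tobramycin”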

[5] = compound: T2, colistin; test: minimum concentration of killing, 4-log CFU reduction of biofilm (MCK99.99); higher = more biofilm tolerance
Description: as §1, with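 “colistin” for “tobramycin”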

[6] = compound: T2, colistin; test: minimum concentration of killing, 2-log CFU reduction of biofilm (MCK99); higher = more biofilm tolerance
Description: as §1, with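 “colistin” for “tobramycin”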

[7] = compound: T1, tobramycin; test: minimum concentration eradicating biofilm below detection limit (MCK-E); higher = more biofilm tolerance
Description: as §1

[8] = compound: T1, tobramycin; test: minimum concentration of killing, 1-log CFU reduction of biofilm (MCK90); higher = more biofilm tolerance
Description: as §1

Test System | minimum concentration of killing [1] [µg/mL] | minimum concentration of killing [2] [µg/mL] | minimum concentration eradicating biofilm below detection limit [3] [µg/mL] | minimum concentration of killing [4] [µg/mL] | minimum concentration of killing [5] [µg/mL] | minimum concentration of killing [6] [µg/mL] | minimum concentration eradicating biofilm below detection limit [7] [µg/mL] | minimum concentration of killing [8] [µg/mL]
Pseudomonas aeruginosa clinical isolate F1864 | 1020 | 1020 | 1020 | 256 | 256 | 256 | > 1020 | 1020
Pseudomonas aeruginosa clinical isolate F1880 | 1020 | 1020 | 256 | 256 | 256 | 256 | 1020 | 64
Pseudomonas aeruginosa clinical isolate F1957 | 1020 | 1020 | 1020 | 256 | 256 | 256 | 1020 | 256
Pseudomonas aeruginosa clinical isolate F1959 | 64 | 1020 | 64 | 64 | 64 | 64 | > 1020 | 16
Pseudomonas aeruginosa clinical isolate F1968 | 64 | 256 | 256 | 64 | 256 | 256 | 1020 | 4
Pseudomonas aeruginosa clinical isolate F2003 | 4 | 256 | 1020 | 64 | 1020 | 256 | 1020 | ≤ 1
Pseudomonas aeruginosa clinical isolate F2005 | 16 | 16 | 256 | 16 | 256 | 256 | 1020 | ≤ 1
Pseudomonas aeruginosa clinical isolate F2006 | ≤ 1 | 64 | 256 | 64 | 256 | 64 | 64 | ≤ 1
Pseudomonas aeruginosa clinical isolate F2010 | 64 | 256 | 1020 | 64 | 256 | 256 | 1020 | 64
Pseudomonas aeruginosa clinical isolate F2017 | 256 | 256 | > 1020 | 4 | 256 | 64 | > 1020 | 16
Pseudomonas aeruginosa clinical isolate F2020 | 16 | 256 | 256 | 16 | 64 | 64 | 1020 | 16
